# The source made the active and inactive calls.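 The calls were made as follows: active = compounds giving half or more protection of infected cells from virus-caused growth loss, again on retest; inactive = the rest.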
# Tested on: CEM cells HIV-1 protection, formazan growth assay
# Test: NCI AIDS Antiviral Assay
# Settings: for IC50: measured here: growth of uninfected CEM cells
# Method in brief: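 Protection of CEM cells against HIV-1 was scored from cell growth (soluble formazan) across five concentrations, with parallel uninfected cells. Lack of protection may reflect toxicity.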
Compound,EC50 [µM],IC50 [µM],outcome
CC(C)N([PH2+]N(C(C)C)C(C)C)C(C)C.[C-]#[O+].[C-]#[O+].[C-]#[O+].[C-]#[O+].[C-]#[O+].[Mo],> 77.6,> 77.6,
CC1(C)CC(O)C2=C(O1)C(=O)c1ncccc1C2=O (configuration not stated),,,inactive
Cc1cc2c(C)n(Cc3ccccc3Cl)nc2c(C(=O)O)c1C,> 759,148,
COc1ccc2c(c1)C(=O)C1CCC(=O)N1C2c1ccc2c(c1)OCO2 (configuration not stated),> 200,3.72,
Cc1ccc(S(=O)(=O)NC(=O)NC2=NC(C)(C)N(c3ccc(Cl)c(Cl)c3)C(N)=N2)cc1,> 200,4.27,
O=C(Nc1ccc(-c2ccccn2)oc1=O)c1ccccc1,> 200,> 200,
N#Cc1c2ccccc2cn1-c1ccc(F)cc1,> 200,79.4,
CC(NC(=O)OC(C)(C)C)C(=O)NC(Cc1ccccc1)C(=O)NCC(=O)Oc1c(Cl)c(Cl)c(Cl)c(Cl)c1Cl (configuration not stated),> 200,4.27,
N#CC(C(=O)CCC(=O)Nc1cccc(C(F)(F)F)c1)c1ccc(Cl)cc1 (configuration not stated),,,inactive
CC1=NN2C(=N)/C(=C/c3ccccc3)C(=O)N=C2S1,> 200,> 200,
CCOC(=O)C1CCC(=O)N1C(=O)c1ccccc1 (configuration not stated),> 200,> 200,
COC1=CCC2=C(CC[C@H]3[C@H]2CCP3(C)=S)C1 (some centres not stated),,,inactive
O=C1CCCN1CC#CCN1C[C@@H]2C3CCC(C3)[C@@H]2C1,> 200,170,
COc1ccc(NC(C)=O)cc1N1C(=O)/C(=C\c2cccc(Oc3ccccc3)c2)S(=O)(=O)C1c1ccccc1 (configuration not stated),> 200,33.1,
O=C(NCc1ccc2ccc3cccnc3c2n1)c1ccc[n+](Cc2ccccc2)c1,> 513,24.5,
COc1ccc(NC(=O)/C(Cc2nc3ccccc3[nH]c2=O)=N\O)c(OC)c1,,,inactive
CN1CCC2(CC1)C(=NC1CCCCC1)NC(=S)N2c1ccccc1,> 100,> 100,
CC(=O)NC(CCCCNC(=O)N(C)N=O)C(=O)NCc1ccccc1 (configuration not stated),> 692,141,
CCCCCSCCCCCCCC(=O)O,> 200,58.9,
O=C(Cn1c(C(=O)c2ccccc2)nc2ccccc21)c1ccccc1,> 200,7.41,
COc1cc(C[P+](c2ccccc2)(c2ccccc2)c2ccccc2)cc(OC)c1OC,> 479,33.1,
CC1C(=O)c2c(O)cc(O)cc2O[C@@H]1C (some centres not stated),> 200,> 200,
CN(C)C(=S)/N=C(\N)N(C)C,,,inactive

Compound,EC50 [µM],IC50 [µM],outcome
O=C(O)C1C2OC3C(OC(=O)C31)C2Br (configuration not stated),> 200,> 200,
N#C[C@@]12CCCC(=O)[C@@H]1[C@H]1CCC[C@H]12,> 200,77.6,
COc1c2c(c(O)c3c4c(c(C)cc13)C1OC3(C(OC)OC5CC(C)(O)C(OC6CC(C)(O)C(O)C(C)O6)C(C)O5)OC1C(OC)(O4)C31CO1)C(=O)C(O)CC2OC1CC(C)(O)C(OC(C)=O)C(C)O1 (configuration not stated),> 26.3,0.00832,
Cc1ccc(-n2c(Cn3nnc(-c4cccnc4)n3)nn(C3OC(COC(=O)c4ccccc4)C(OC(=O)c4ccccc4)C3OC(=O)c3ccccc3)c2=S)cc1C (configuration not stated),> 100,> 100,
CC(C)OP(=O)(OC(C)C)C([CH2][Sn]([CH3])([CH3])[Cl])P(=O)(c1ccccc1)c1ccccc1 (configuration not stated),> 200,2.88,
O=S(=O)(O)C(Br)(Br)Br,> 200,> 200,
Cn1ccc(C(=O)NCCOCCNC(=O)c2ccn(C)c(=O)c2O)c(O)c1=O,> 50.1,> 50.1,
O=c1c2nc(-c3ccccc3)oc2n(-c2ccccc2)c(=O)n1-c1ccccc1,> 200,117,
Cc1ccc(S(=O)(=O)NC(=O)Nc2sc(=S)c3c(c2C#N)CCCC3)cc1,> 309,58.9,
CCCCCCCCCC=C(c1cc(Br)c(O)c(C(=O)O)c1)c1cc(Br)c(O)c(C(=O)O)c1,141,191,
O=C(/C=C/c1ccc(O)c(O)c1)OCCc1cccc2ccccc12,> 200,2.75,
COc1ccc(N2C(=O)C(=O)N(c3ccccc3[N+](=O)[O-])C2=S)cc1,> 200,27.5,
Cn1ccnc1SC(F)(F)c1nc2ccccc2o1,> 200,148,
CNC(=O)OCc1cc(C(=O)NCCCNCCCNC(=O)c2ccc([N+](=O)[O-])c(COC(=O)NC)c2)ccc1[N+](=O)[O-],,,inactive
CN(C)C(=O)OCOP(=O)(OCOC(=O)N(C)C)OCC1CCC(n2ccc(=O)[nH]c2=O)O1 (configuration not stated),> 200,93.3,
CC1(C)C(=O)/C=C\C(=O)C(C)(C)C2=CC=C(O2)C(C)(C)C(=O)/C=C\C(=O)C(C)(C)C2=CC=C1O2,,,inactive
COc1ccc(C(=O)/C(=N/Nc2ccccc2)c2ccc(OC)cc2)cc1,,,inactive
O=C1OC(c2ccccc2)=N/C1=C\c1ccco1,> 75.9,60.3,
Cc1c(Cl)cccc1Nc1ncccc1C(=O)O,> 200,> 100,
O=C1NC(=O)c2c1c1cnn(-c3ccccc3)c1n1cccc21,> 74.1,> 74.1,
O=S1(=O)c2ccccc2N(O)C2=NCCN21,> 550,91.2,
N#Cc1c2c(cn3c1nc1ccccc13)CCCCC2,> 151,> 151,

# From PubChem BioAssay AID179 (DTP/NCI, 2004)
